Holding throughout (assay): NCI tumour cell line growth inhibition, 48 h
For test [1], the system named is CAKI-1 renal.
The subject of test [2] is T-47D breast.
Test [3] deals with UACC-62 melanoma.
Test [4] deals with MOLT-4 leukemia.
The test system of test [5] is BT-549 breast.
Test [6] relates to HCC-2998 colon.
The test system of test [7] is IGROV1 ovarian.
Test [8] concerns A498 renal.
Test [9] concerns HOP-62 NSCLC.
For test [10], the system named is SNB-75 CNS.

Structures are written as SMILES.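 Each compound was tested at five concentrations against cells in 96-well plates for 48 hours. Here, GI50 denotes the concentration required for 50% inhibition of growth. TGI marks complete inhibition of growth.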

Turning to `C=CCc1c(O)c(C(=O)/C=C/c2ccccc2)c(OC)c2ccoc12`, the GI50 in test [1] is 2.8 µM; in [2] it was 4.11 µM; in [3] it was 2.74 µM; in test [4], 2.17 µM; in [5] it was 2.63 µM; in [6], 1.73 µM. Moreover, the GI50 in test [7] is 3.35 µM; in test [8] it was 1.74 µM; in test [9] it was 5.32 µM; in test [10] it was 1.39 µM. The TGI came out at 11 µM in test [1]; 22.4 µM in test [2]; 9.93 µM in test [3]; 16.6 µM in test [4]; 8.09 µM in test [5]; 3.21 µM in test [6]. The TGI in [7] stood at 11.6 µM; in [8] it was 9.4 µM; in [9], 17.8 µM; in [10], 6.76 µM.

In the case of `Cc1cc(Cl)cc(Cc2cc(Cl)cc(C)c2O)c1O`, the GI50 was 2.32 µM in test [1]; 3.64 µM in test [2]; 2.28 µM in [3]; 3.45 µM in test [4]; 2.46 µM in test [5]; 2.68 µM in test [6]. Also, the GI50 is 5.18 µM in [7], 3.05 µM in test [8], 3.66 µM in [9] and 1.95 µM in [10]. The TGI was 9.57 µM in [1]; above 100 µM in test [2]; 10.6 µM in test [3]; 49.8 µM in test [4]; 7.02 µM in test [5]; 7.95 µM in test [6]. The TGI in test [7] stood at 29.5 µM; in test [8], 14.1 µM; in test [9], 11.5 µM; in test [10] it was 7.19 µM.

With `CCC[CH2][Pb]([Cl])([CH2]CCC)[CH2]CCC`, the GI50 in test [1] is 0.0673 µM; in test [2], 0.0181 µM; in [3], 0.0459 µM; in test [4], 0.0245 µM; in [5], 0.031 µM; in [6], 0.0439 µM. Also, the GI50 in test [7] was 0.0603 µM; in test [8] it was 0.0483 µM; in test [9] it was 0.128 µM; in test [10], 0.0215 µM. The TGI in test [1] was 0.199 µM; in test [2] it was 0.0383 µM; in test [3], 0.112 µM; in [4], 0.731 µM; in [5], 0.137 µM; in [6] it was 0.136 µM. For the same compound, the TGI in test [7] came out at 0.179 µM; in [8], 0.148 µM; in [9], 0.258 µM; in test [10], 0.114 µM.

Regarding `CN(C)c1ccc(N=C2C=CC(=O)c3ccccc32)cc1`, the GI50 in test [1] was 3.58 µM; in test [2], 2.27 µM; in [3], 1.71 µM; in [4], 2.45 µM; in test [5] it was 7.49 µM; in [6], 5.05 µM. For the same compound, the GI50 in test [7] was 2.76 µM; in test [8], 12 µM; in [9] it was 2.19 µM; in test [10] it was 1.8 µM. Further, the TGI in test [1] came out at 16.3 µM; in test [2], 6.01 µM; in test [3], 3.24 µM; in test [4], 6.21 µM; in [5], 20.5 µM; in test [6], 16.7 µM. Besides, the TGI in test [7] stood at 9.28 µM; in [8] it was 25.2 µM; in test [9] it was 6.62 µM; in test [10] it was 4.86 µM.

For the compound `Nc1ncnc2c1ccn2[C@@H]1O[C@H]([C@H](O)c2ccc(Cl)c(F)c2)[C@@H](O)[C@H]1O`, the GI50 in test [1] was above 100 µM; in test [2], 23.5 µM; in [3] it was above 100 µM; in test [4] it was above 100 µM; in test [5], above 100 µM; in [6], above 100 µM. Also, the GI50 in [7] was 48.6 µM; in [8] it was 52.4 µM; in test [9] it was above 100 µM; in test [10], above 100 µM. Moreover, the TGI in test [1], in test [2], in [3], in [4], in test [5] and in [6] was above 100 µM throughout. In addition, the TGI in [7], in test [8], in [9] and in test [10] was above 100 µM in each case.

`C/C(=N/Nc1nc(C)cc(=O)[nH]1)C(=O)O`: the TGI in [1], in test [2], in test [3], in test [4], in [5] and in test [6] was above 100 µM throughout. Further, the TGI in test [7], in test [8], in test [9] and in test [10] was above 100 µM each time.

For `Nc1ccc(Sc2c3ccccc3nc3ccccc23)cc1`, the TGI stood at 39 µM in test [1]; 5.6 µM in test [2]; 30.5 µM in test [3]; 27.1 µM in [4]; 27.4 µM in test [5]; 59.5 µM in test [6]. Further, the TGI was 37.6 µM in test [7], above 100 µM in test [8], 56.9 µM in test [9] and 36.2 µM in test [10].

On to `C[C@@H](Oc1cc(-n2cnc3ccc(OC[C@@H](O)CO)cc32)sc1C(N)=O)c1ccccc1Cl`, for which the GI50 in test [1] was 12.2 µM; in test [2], 1.22 µM; in test [3], 0.107 µM; in test [4], 0.095 µM; in test [5], 0.194 µM; in [6], 0.0848 µM. Moreover, the GI50 in test [7] was 0.214 µM; in test [8] it was 0.148 µM; in test [9], 0.11 µM; in test [10], 0.29 µM. Besides, the TGI is above 25 µM in test [1]; above 25 µM in test [2]; above 25 µM in test [3]; 7.47 µM in [4]; 11.1 µM in test [5]; above 25 µM in test [6]. Also, the TGI in test [7] is above 25 µM; in test [8], 1.2 µM; in [9], above 25 µM; in test [10], 4.41 µM.
